Source: patent US5023262A, “Hydrogenated rapamycin derivatives” (American Home Products Corporation, priority 1990, dated 1991)
In brackets after ≈: the same amount, converted by molar mass.

Key:
[1] = test system: Candida albicans ATCC 38247; assay: Antifungal plate test, inhibition of Candida albicans ATCC 38247; assay type: cell-based; conditions: for MIC: Candida albicans, ATCC38247, read-out: MIC to inhibit growth
Experimental: (§1) The following represents the typical procedure used. Compound to be tested was placed on sterile dried 1/4" plate disks, and allowed to dry. Agar plates were seeded with fungi and allowed to solidify. The impregnated disks were placed on the seeded Agar surface and incubated for the time required for the particular culture. Results are expressed in MIC (μg/ml) to inhibit growth.

[2] = test system: cells from the thymus of normal BALB/c mice; assay: Comitogen-induced thymocyte proliferation procedure (LAF); assay type: cell-based; conditions: in vitro, rapamycin 1.0, 72 hours culture with PHA and IL-1
Experimental: (§2) Immunosuppressive activity was evaluated in an in vitro standard pharmacological test procedure to measure lymphocyte proliferation (LAF) and in two in vivo standard pharmacological test procedures. The first in vivo procedure was a popliteal lymph node (PLN) test procedure which measured the effect of compounds of this invention on a mixed lymphocyte reaction and the second in vivo procedure evaluated the survival time of a pinch skin graft.
Briefly, cells from the thymus of normal BALB/c mice are cultured for 72 hours with PHA and IL-1 and pulsed with tritiated thymidine during the last six hours. […] Cells are harvested and incorporated; radioactivity is determined. Inhibition of lymphoproliferation is assessed in percent change in counts per minute from non-drug treated controls. The results are expressed by the following ratio: [formula]

[3] = test system: pinch skin graft from male DBA/2 donors; assay: Survival time of pinch skin graft; assay type: in vivo, male BALB/c mice (recipients); conditions: intraperitoneally; mean ± S.D.
Experimental: as §2
The second in vivo test procedure is designed to determine the survival time of pinch skin graft from male DBA/2 donors transplanted to male BALB/c recipients. The method is adapted from Billingham R. E. and Medawar P. B., J. Exp. Biol. 28:385-402, (1951). Briefly, a pinch skin graft from the donor is grafted on the dorsum of the recipient as a homograft, and an autograft is used as control in the same region. […] Untreated recipients serve as rejection control. The graft is monitored daily and observations are recorded until the graft becomes dry and forms a blackened scab. This is considered as the rejection day. The mean graft survival time (number of days±S.D.) of the drug treatment group is compared with the control group.

[4] = test system: Candida albicans ATCC 10231; assay: Antifungal plate test, inhibition of Candida albicans ATCC 10231; assay type: cell-based; conditions: for MIC: Candida albicans, ATCC10231, read-out: MIC to inhibit growth
Experimental: as §1

Candida albicans 3669 = assay: Antifungal plate test, inhibition of Candida albicans 3669; assay type: cell-based; conditions: strain 3669; for MIC: Candida albicans, read-out: MIC to inhibit growth
Experimental: as §1

[5] = test system: Candida albicans ATCC 38248; assay: Antifungal plate test, inhibition of Candida albicans ATCC 38248; assay type: cell-based; conditions: for MIC: Candida albicans, ATCC38248, read-out: MIC to inhibit growth
Experimental: as §1

[6] = test system: Candida albicans ATCC 38246; assay: Antifungal plate test, inhibition of Candida albicans ATCC 38246; assay type: cell-based; conditions: for MIC: Candida albicans, ATCC38246, read-out: MIC to inhibit growth
Experimental: as §1

[7] = test system: mixed lymphocyte reaction in popliteal lymph node; assay: In vivo popliteal lymph node (PLN) test procedure; set-up: species or system C3H mice (BALB/c donors); conditions: for PLN Assay (ratio): in vivo, rapamycin 1.0, p.o. daily Day 0 to Day 4
Experimental: as §2
A mixed lymphocyte reaction (MLR) occurs when lymphoid cells from genetically distinct animals are combined in tissue culture. Each stimulates the other to undergo blast transformation which results in increased DNA synthesis that can be quantified by the incorporation of tritiated thymidine. Since stimulating a MLR is a function of disparity at Major Histocompatibility antigens, an in vivo popliteal lymph node (PLN) test procedure closely correlates to host vs. graft disease. Briefly, irradiated spleen cells from BALB/c donors are injected into the right hind foot pad of recipient C3H mice. The drug is given daily, p.o. from Day 0 to Day 4. On Day 3 and Day 4, tritiated thymidine is given i.p., b.i.d. On Day 5, the hind popliteal lymph nodes are removed and dissolved, and radioactivity counted. The corresponding left PLN serves as the control for the PLN from the injected hind foot. Percent suppression is calculated using the non-drug treated animals as allogenic control. […] Results are expressed by the following ratio: [formula]

transplant rejection = conditions: cited from earlier work
multiple sclerosis = conditions: in vivo; cited from earlier work
[8] = alone or in combination with picibanil; cited from earlier work
Candida albicans = conditions: in vitro and in vivo; cited from earlier work
IgE-like antibodies = conditions: in vivo; cited from earlier work

Compound | MIC to inhibit growth [1] | LAF Assay (ratio) [2] | Skin Graft Assay (days + SD), mean graft survival time [3] | MIC to inhibit growth [4] | MIC to inhibit growth (Candida albicans 3669) | MIC to inhibit growth [5] | MIC to inhibit growth [6] | PLN Assay (ratio) [7] | MIC [1] | MIC [4] | MIC (Candida albicans 3669) | MIC [5] | MIC [6] | inhibition of transplant rejection / immunosuppressive effect (transplant rejection) | effect in experimental allergic encephalomyelitis model (multiple sclerosis) | antitumor activity [8] | Percent suppression (PLN) ([7]; 6 mg/kg, p.o.) | antifungal activity (Candida albicans) | inhibition of formation of IgE-like antibodies (IgE-like antibodies)
1,2,3,4-Tetrahydrorapamycin [Example 2] | 0.006 µg/mL | 0.036 | 7.0 ± 0.9 days | 0.006 µg/mL | 0.0125 µg/mL | 0.0125 µg/mL | 0.05 µg/mL | – | – | – | – | – | – | – | – | – | – | – | –
CO[C@H]1C[C@@H]2CC[C@@H](C)[C@@](O)(O2)C(=O)C(=O)N2CCCC[C@H]2C(=O)O[C@H]([C@H](C)C[C@@H]2CC[C@@H](O)[C@H](OC)C2)CC(=O)[C@H](C)/C=C(\C)[C@@H](O)[C@@H](OC)C(=O)[C@H](C)C[C@H](C)CC/C=C/C=C/1C [Example 1, 1,2-Dihydrorapamycin] | – | – | 7.3 ± 0.9 days | – | – | – | – | -1.67 | > 0.4 µg/mL | 0.4 µg/mL (≈ 0.437 µM) | 0.2 µg/mL (≈ 0.218 µM) | 0.2 µg/mL (≈ 0.218 µM) | 0.2 µg/mL (≈ 0.218 µM) | – | – | – | – | – | –
C=CC[C@@H]1/C=C(\C)C[C@H](C)C[C@H](OC)[C@H]2O[C@@](O)(C(=O)C(=O)N3CCCC[C@H]3C(=O)O[C@H](/C(C)=C/[C@@H]3CC[C@@H](O)[C@H](OC)C3)[C@H](C)[C@@H](O)CC1=O)[C@H](C)C[C@@H]2OC [FK-506] | – | – | – | – | – | – | – | – | – | – | – | – | – | effective as immunosuppressive agents | – | – | – | – | –
CO[C@H]1C[C@@H]2CC[C@@H](C)[C@@](O)(O2)C(=O)C(=O)N2CCCC[C@H]2C(=O)O[C@H]([C@H](C)C[C@@H]2CC[C@@H](O)[C@H](OC)C2)CC(=O)[C@H](C)/C=C(\C)[C@@H](O)[C@@H](OC)C(=O)[C@H](C)C[C@H](C)/C=C/C=C/C=C/1C [Rapamycin, rapamycin] | – | – | 12.0 ± 1.7 days | – | – | – | – | 1.0 | 0.003 µg/mL (≈ 0.00328 µM) | 0.003 µg/mL (≈ 0.00328 µM) | 0.025 µg/mL (≈ 0.0273 µM) | 0.006 µg/mL (≈ 0.00656 µM) | 0.025 µg/mL (≈ 0.0273 µM) | effective in inhibiting transplant rejection | effective in the experimental allergic encephalomyelitis model | antitumor activity | 86% | antifungal activity, particularly against Candida albicans, both in vitro and in vivo | effectively inhibited the formation of IgE-like antibodies
